Reference: US10471118B2, “Retinylamine derivitives for treatment of ocular disorders” (CASE WESTERN RESERVE UNIVERSITY, priority 2014, dated 2019)

Columns and labels:
[1] = All-trans-retinal Schiff base formation; conditions: 0.2 mM drug with all-trans-retinal in ethanol 2 h at room temperature
Protocol: Incubate Ret-NH2 and retinylamine derivatives RVG, RF (0.2 mM) with all-trans-retinal (2 mM) in ethanol 2 h at room temperature, retinyl imines separated by reverse phase HPLC were identified on the basis of both their characteristic UV-vis spectra upon protonation and spectra obtained by mass spectrometry (MS). HPLC condition: analytical C18 reverse column; 5 μm; 250 mm×4.6 mm; flow rate of 0.5 mL/min; mobile phase acetonitrile:H2O (v:v) with 0.05% trifluoroacetic acid (0-15 min acetonitrile from 50% to 100%, 15-30 min 100% acetonitrile); detection at 325 nm.

C57BL/6J wild-type mice = test: ERG retinal function in C57BL/6J wild-type mice after oral gavage; type: in vivo; conditions: 1.75 μmol per mouse oral; for ERG signal compared with nontreated control: 6 h post-treatment; for ERG signal compared with untreated control: 24 h post treatment
Protocol: All ERG procedures were performed by published methods. For single-flash recording, the duration of white-light flash stimuli (from 20 μs to 1 ms) was adjusted to provide a range of illumination intensities (from −3.7 to 1.6 log cd s m-2). Three to five recordings were made at sufficient intervals between flash stimuli (from 3 s to 1 min) to allow recovery from any photobleaching effects.
Strong inhibition of retinoid cycle could cause temporary vision impairment. Electroretinograms (ERGs) were recorded to in retinal function in C57BL/6J wild-type mice at 6 and 24 h after oral gavage of RVG, RF or Ret-NH2 at a dose of 1.75 μmol per mouse.

RPE65 [2] = biological target: T1, RPE65 (Mus musculus, UniProt Q91ZQ5); test: In vivo RPE65 inhibition: 11-cis-retinal regeneration after photo-bleach; conditions: 1.75 μmol per mouse oral 16 h prior to photo-bleach (7000 lux, 10 min), 24 h dark
T1 sequence (Q91ZQ5 2-533 limits assumed): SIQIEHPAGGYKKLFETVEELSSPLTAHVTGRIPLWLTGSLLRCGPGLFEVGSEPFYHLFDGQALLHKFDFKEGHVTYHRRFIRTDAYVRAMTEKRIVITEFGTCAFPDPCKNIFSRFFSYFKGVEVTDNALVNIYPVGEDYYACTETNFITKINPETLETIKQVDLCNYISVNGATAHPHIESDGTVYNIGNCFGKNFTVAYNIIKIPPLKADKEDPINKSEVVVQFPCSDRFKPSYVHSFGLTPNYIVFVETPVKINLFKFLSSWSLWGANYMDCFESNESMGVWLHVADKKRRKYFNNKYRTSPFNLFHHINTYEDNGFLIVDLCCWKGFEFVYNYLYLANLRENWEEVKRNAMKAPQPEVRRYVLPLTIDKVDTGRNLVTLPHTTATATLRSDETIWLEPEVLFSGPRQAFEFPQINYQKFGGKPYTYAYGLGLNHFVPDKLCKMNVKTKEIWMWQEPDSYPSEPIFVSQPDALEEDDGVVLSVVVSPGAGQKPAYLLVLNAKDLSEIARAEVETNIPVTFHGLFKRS
Protocol: The retinylamine derivatives (31 RVG and 3b RF) or Ret-NH2 were administered by oral gavage at same mole dose 1.75 μmol per mouse into dark-adapted C57BLwild-type female mice (n=3) at 16 h prior to photo-bleach. After photo-bleach (7000 lux, 10 min), mice were kept the dark room for 24 h to allow the visual cycle to recovery. Mice were then sacrificed and eyes were extracted for analysis. Mice without treatment prior to photo-bleach were set as control. Retinoid extraction was done by manually homogenizing eyes in 1 mL of 1:1 ethanol:PBS solution containing 40 mM hydroxylamine. Retinoids were extracted in 4 mL hexane, concentrated, and reconstituted to a volume of 200 μL. Normal-phase HPLC (Agilent-Zorbax SIL; 5 μm; 4.5×250 mm; flow rate of 1.4 mL/min; 90:10 hexane:ethyl acetate (v:v); detection at 325 nm) was utilized to analyze retinoid concentrations. In vivo RPE65 inhibition was analyzed by quantifying the amount of 11-cis-retinal within each eye.

RPE65 [3] = biological target: RPE65 (Bos taurus, UniProt Q28175); test: Retinoid isomerase activity in RPE microsomes (11-cis-retinol production); type: biochemical, Bovine; conditions: 0.5 to 10 μM compound, 10 μM all-trans-retinol, 1 h
RPE65 (Bos taurus, UniProt Q28175), sequence (Q28175 whole entry): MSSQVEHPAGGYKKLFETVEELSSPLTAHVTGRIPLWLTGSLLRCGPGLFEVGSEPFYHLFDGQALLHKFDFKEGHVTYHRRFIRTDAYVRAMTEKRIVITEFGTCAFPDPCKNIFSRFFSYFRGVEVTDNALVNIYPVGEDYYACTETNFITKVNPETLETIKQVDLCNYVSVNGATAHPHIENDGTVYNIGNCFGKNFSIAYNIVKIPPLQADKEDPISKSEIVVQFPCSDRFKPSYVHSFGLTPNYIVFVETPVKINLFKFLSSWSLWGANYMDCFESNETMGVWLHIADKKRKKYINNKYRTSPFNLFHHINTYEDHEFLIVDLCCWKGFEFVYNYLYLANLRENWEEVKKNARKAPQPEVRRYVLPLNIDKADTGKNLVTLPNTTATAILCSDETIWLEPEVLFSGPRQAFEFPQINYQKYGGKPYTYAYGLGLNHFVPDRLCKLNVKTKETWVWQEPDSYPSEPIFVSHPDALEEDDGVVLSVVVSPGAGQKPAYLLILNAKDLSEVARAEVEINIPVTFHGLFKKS
Protocol: To destroy endogenous retinoids, 200-μl aliquots of RPE microsomes placed in a quartz cuvette were irradiated for 5 min at 0° C. with a ChromatoUVE transilluminator (model TM-15; UVP).
All assays were performed under dim red light. 2 μl of the synthesized retinylamine derivatives (RF and RVG) (DMF, 0.5-10 mM) was added into 10 mM Bis-Tris propane buffer (pH 7.4) containing 150 μg RPE microsomes, 1% BSA, 1 mM disodium pyrophosphate and 20 μM apo Retinaldehyde-binding protein 1 (CRALBP). The resulting mixture was pre-incubated at room temperature for 5 min. Then 1 μl all-trans-retinol (DMF, 20 mM) was added. The resulting mixture was incubated at 37° C. for 1 h. Reaction was quenched by addition of 300 μl methanol, and the products were extracted with 300 μl hexanes. Production of 11-cis-retinol was quantified by normal phase HPLC with 10% (v/v) ethyl acetate in hexanes as eluent. Flow rate was 1.4 ml·min^−1 Retinoids were detected by monitoring absorbance at 325 nm and quantified base on a standard curve reflecting relation between amount of 11-cis-retinol and area under the corresponding chromatography peak.

Row | Structure (SMILES) | Schiff base formation with atRAL [1] | ERG signal compared with nontreated control (C57BL/6J wild-type mice) | ERG signal compared with untreated control (C57BL/6J wild-type mice) | regeneration of 11-cis-retinal in the eye (RPE65 [2]) | inhibition of RPE65 on 11-cis-retinol production (RPE65 [3]) | ERG signal in the retina (C57BL/6J wild-type mice; first 24 h after the treatment)
1 | CC1=C(/C=C/C(C)=C/C=C/C(C)=C/CNC(=O)[C@@H](N)Cc2ccccc2)C(C)(C)CCC1 [RF, (S)-2-amino-N-((2E,4E,6E,8E)-3,7-dimethyl-9-(2,6,6-trimethylcyclohex-1-en-1-yl)nona-2,4,6,8-tetraen-1-yl)-3-phenylpropanamide] | able to form Schiff base with atRAL | attenuated ERG signal | recover to the magnitude of the untreated control mice | faster regeneration of 11-cis-retinal in the eye, and weaker inhibition of retinoid cycle than Ret-NH2 | partial inhibition, but not in a concentration dependent manner | –
2 | CC1=C(/C=C/C(C)=C/C=C/C(C)=C/CNC(=O)[C@@H](NC(=O)CN)C(C)C)C(C)(C)CCC1 [RVG, (S)-2-(2-aminoacetamido)-N-((2E,4E,6E,8E)-3,7-dimethyl-9-(2,6,6-trimethylcyclohex-1-en-1-yl)nona-2,4,6,8-tetraen-1-yl)-3-methylbutanamide] | able to form Schiff base with atRAL | attenuated ERG signal | recover to the magnitude of the untreated control mice | faster regeneration of 11-cis-retinal in the eye, and weaker inhibition of retinoid cycle than Ret-NH2 | did not show significant inhibition | –
3 | CC1=C(/C=C/C(C)=C/C=C/C(C)=C/CN)C(C)(C)CCC1 [Ret-NH2, (2E,4E,6E,8E)-3,7-dimethyl-9-(2,6,6-trimethylcyclohex-1-en-1-yl)nona-2,4,6,8-tetraen-1-amine] | able to form Schiff base with atRAL | – | – | much lower concentration of 11-cis-retinal than the untreated controls | concentration dependent inhibition of RPE65 | no significant ERG signal was detected
